Experimental data taken from patent US20110045065A1, “SUBSTANCE HAVING ANTIOXIDANT, GEROPROTECTIVE AND ANTI-ISCHEMIC ACTIVITY AND METHOD FOR THE PREPARATION THEREOF” (priority 2005, published 2011).

How the values were obtained:
[1] = test system: traumatic hemophthalmia; assay: Experimental traumatic hemophthalmia: biochemical parameters in blood serum, tear liquid, anterior chamber liquid and eye tissue; assay type: in vivo, chinchilla rabbits
Protocol: Studies were carried out in 12 chinchilla rabbits having body weight 2.0-2.5 kg. A traumatic hemophthalmia was modeled by introduction of 0.5 to 0.7 ml of autoblood into a vitreous body through a puncture in a sclera on distance of 5 mm from a limbus, under a local anaesthesia. The basic group made with 6 rabbits (12 eyes), daily received a formulation prepared in accordance with the present invention parabulbarly (0.5 ml of 1% solution). A control group presented by 6 animals (12 eyes), daily received parabulbar emoxipin (2-ethyl-6-methyl-3-hydroxypiridin) in the same dosage. Treatment was carried out within 14 days after a trauma.
The materials used for biochemical examination were as follows: blood, liquid of the anterior chamber, tear liquid, tunics of eyeglobe (retina, a vitreous body). The blood was taken from the aural vein in an amount of 3 ml. Sampling of tear liquid was carried out by a microcapillary after instillation of distilled water into the conjunctival cavity. Liquid of the anterior chamber was obtained by paracentesis. The blood sampling as well as liquid of the anterior chamber and teat liquid were carried out on the 1st, 7th and 14th day of the experiment. On the 15th day of the studies, the animals were killed (pithed) by air embolism and both the eyes were enucleated. The eyes were prepared by tunic separation. Retina and vitreous body were obtained.

[2] = test system: external segments of photoreceptor cells; assay: Ascorbate-induced peroxidation of external segments of photoreceptor cells; assay type: biochemical, pig
From the text: The external segments of photoreceptor cells are obtained from pig retinas according to standard procedure, using methods of differential centrifuging in a saccharose density gradient. […] Subsequently, the process was stopped by 15% trichloroacetic acid, and the concentration of TBK-active products has been determined. Samples being free of compound Ic were used as a control.
In these experiments a comparison of the speed of ascorbate-induced peroxidation of external segments of photoreceptor cells of pig eyes has been carried out, said comparison being determined with respect to the accumulation of TBK-active products in the presence of different compound I salts.

[3] = test system: acute myocardial ischemia (occlusion of the coronary artery of rats); assay: Sizes of necrosis and ischemia zones in acute myocardial ischemia; assay type: in vivo, rat
Protocol: The experiments are carried out with non-pedigree male rats having a weight of 250-300 g, which have been anesthetized with sodium ethaminale (40 mg/kg intraperitoneally). A myocardial infarction was modeled for animals, transferred to controlled breathing, by ligation of a descending branch of the left-hand coronary artery to a level of the lower edge of an auricula atrii.
The sizes of necrosis zones and ischemia zones have been determined within 4 hours after occlusion of the coronary artery by a differential indicator method, the principle of which is based on separate quantitative determination of Evans' blue (indicator of an ischemia zone) and red phormazane (indicator of an necrosis zone).

[4] = test system: tissue of the eye; assay: Local irritant action to tissue of the eye; assay type: in vivo, rabbit; conditions: six rabbits, single instillation of 1% solution, within 1 min after dropping
Protocol: The experimental measurements are carried out on six rabbits. All animals have been subjected to single instillation of 1% solution of compound I into the right eye and 1% solution of emoxypine into the left eye. The front section of the eye is controlled by a focal illumination method with a 20 D lens within 1 min. after dropping.

[5] = 1st day, anterior chamber liquid (ACL)
[6] = 7th day, anterior chamber liquid (ACL)
[7] = 14th day, anterior chamber liquid (ACL)
[8] = rats, 16 mg/kg, within 4 hours after occlusion of the coronary artery

2,4,6-trimethyl-3-oxypyridine succinate [Compound Ic]
AOA [1, 5]: 0.4 ± 0.01 relative unit | Concentration of TBA-active products [1, 5]: 0.97 ± 0.18 nmol/mL | Protein concentration [1, 5]: 3.1 ± 1.2 mg/mL | AOA ([1]; 1st day, blood serum (BS)): 1.7 ± 0.3 relative unit | Concentration of TBA-active products ([1]; 1st day, blood serum (BS)): 1.29 ± 0.13 nmol/mL | Protein concentration ([1]; 1st day, blood serum (BS)): 90.0 ± 6.0 mg/mL | AOA ([1]; 1st day, tear liquid (TL)): 0.23 ± 0.02 relative unit | Concentration of TBA-active products ([1]; 1st day, tear liquid (TL)): 0.14 ± 0.01 nmol/mL | Protein concentration ([1]; 1st day, tear liquid (TL)): 0.32 ± 0.2 mg/mL | AOA of basic group relative to control group, average of all measured substrata ([1]; 7th day): 1.5 times | AOA ([1]; 7th day, anterior chamber liquid): 0.8±0.07 /100 mcl | AOA [1, 6]: 0.8 ± 0.07 relative unit | Concentration of TBA-active products [1, 6]: 0.8 ± 0.5 nmol/mL | Protein concentration [1, 6]: 4.4 ± 1.2 mg/mL | AOA ([1]; 7th day, blood serum): 2.4±0.02 /100 mcl | AOA ([1]; 7th day, blood serum (BS)): 2.4 ± 0.02 relative unit | Concentration of TBA-active products ([1]; 7th day, blood serum (BS)): 1.17 ± 0.05 nmol/mL | Protein concentration ([1]; 7th day, blood serum (BS)): 82.4 ± 1.3 mg/mL | AOA ([1]; 7th day, tear liquid): 0.24±0.02 /200 mcl | AOA ([1]; 7th day, tear liquid (TL)): 0.24 ± 0.02 relative unit | Concentration of TBA-active products ([1]; 7th day, tear liquid (TL)): 0.13 ± 0.05 nmol/mL | Protein concentration ([1]; 7th day, tear liquid (TL)): 0.7 ± 0.2 mg/mL | AOA ([1]; 14th day, anterior chamber liquid): 0.5±0.05 /100 mcl | AOA [1, 7]: 0.5 ± 0.05 relative unit | Concentration of TBA-active products [1, 7]: 0.6 ± 0.2 nmol/mL | Protein concentration [1, 7]: 4.1 ± 1.1 mg/mL | AOA ([1]; 14th day, blood serum): 1.9±0.7 /100 mcl | AOA ([1]; 14th day, blood serum (BS)): 1.9 ± 0.7 relative unit | Concentration of TBA-active products ([1]; 14th day, blood serum (BS)): 0.9 ± 0.15 nmol/mL | Protein concentration ([1]; 14th day, blood serum (BS)): 47.0 ± 3.0 mg/mL | AOA ([1]; 14th day, tear liquid): 0.08±0.02 /200 mcl | AOA ([1]; 14th day, tear liquid (TL)): 0.08 ± 0.02 relative unit | Concentration of TBA-active products ([1]; 14th day, tear liquid (TL)): 0.04 ± 0.07 nmol/mL | Protein concentration ([1]; 14th day, tear liquid (TL)): 0.6 ± 0.2 mg/mL | AOA ([1]; Retina, listed under 14th day (eyes enucleated on the 15th day)): 0.4 ± 0.07 relative unit | AOA ([1]; Vitreous body, listed under 14th day (eyes enucleated on the 15th day)): 3.5 ± 0.9 relative unit | Antioxidant activity in vivo in comparison ([1]; conclusion in words): higher antioxidant activity than emoxipin | Augmentation of AOA in basic group in comparison with the control group ([1]; eye tunics, a retina and a vitreous body): 2 times | Speed of accumulation of TBK-active products for 30 min of reacting ([2]; compound 43 mM): 0.05 nmol/mg | Inhibition ([2]; compound 43 mM, 30 min of reacting): 93.5% | Inhibition ([2]; response time 15 min, 17 mM compound, 0.5 mM ascorbic acid): 49.6% | Inhibition ([2]; response time 30 min, 17 mM compound, 0.5 mM ascorbic acid): 32.3% | Ratio of necrosis zone to ischemia zone [3, 8]: 11 ± 3.3% | Ratio of necrosis zone to total mass of the myocardium [3, 8]: 4 ± 2.3% | Anti-ischemic activity in comparison ([3]; result in words): considerably higher anti-ischemic activity than the other 3-oxypyridines | Local irritant reaction of conjunctiva, eyeglobe and cornea [4]: do not show local irritating action on tissue of the eye | Local irritant reaction of conjunctiva, eyeglobe and cornea ([4]; listed as I): not detected
